Test results reported in paper PMC10914731, “Homo-BacPROTAC-induced degradation of ClpC1 as a strategy against drug-resistant mycobacteria” (Nature Communications, 2024).
Values after ≈ are worked out from the molar mass of the structure shown. Values joined by “and” are separate entries in the source; they are usually repeats but may differ in a detail not shown here. Identical values can stand only once. Like-named read-outs stand apart in the source and are kept apart here.

Experiments:
Mtb H37Rv = test: Minimum bactericidal concentration (MBC), Mtb H37Rv; format: cell-based, Mycobacterium tuberculosis; details: for MBC: Mycobacterium tuberculosis, H37RV
Caco-2 monolayers = test: in vitro
Outline: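 Values are bidirectional Caco-2 apparent permeabilities, P(A−B) and P(B−A), given in 10^-6 cm s-1. The efflux ratio divides P(B−A) by P(A−B), and intrinsic permeability averages the two directions.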

[1] = test system: non-replicating cells of Mtb H37Rv; format: cell-based, Mycobacterium tuberculosis; details: for Supplementary Figure 2 dose-response value, starvation-induced non-replicating H37Rv cells: three replicate columns
[2] = test system: M. tuberculosis H37Rv (ATCC 27294); test: microbe, parasite or virus in culture; format: cell-based
Msm 607 = test: microbe, parasite or virus in culture; format: cell-based
[3] = molecular target: endogenous ClpC1 in Msm #607 cells (Mycolicibacterium smegmatis, UniProt A0R574); format: cell-based, M. smegmatis
endogenous ClpC1 in Msm #607 cells, sequence (A0R574 whole entry): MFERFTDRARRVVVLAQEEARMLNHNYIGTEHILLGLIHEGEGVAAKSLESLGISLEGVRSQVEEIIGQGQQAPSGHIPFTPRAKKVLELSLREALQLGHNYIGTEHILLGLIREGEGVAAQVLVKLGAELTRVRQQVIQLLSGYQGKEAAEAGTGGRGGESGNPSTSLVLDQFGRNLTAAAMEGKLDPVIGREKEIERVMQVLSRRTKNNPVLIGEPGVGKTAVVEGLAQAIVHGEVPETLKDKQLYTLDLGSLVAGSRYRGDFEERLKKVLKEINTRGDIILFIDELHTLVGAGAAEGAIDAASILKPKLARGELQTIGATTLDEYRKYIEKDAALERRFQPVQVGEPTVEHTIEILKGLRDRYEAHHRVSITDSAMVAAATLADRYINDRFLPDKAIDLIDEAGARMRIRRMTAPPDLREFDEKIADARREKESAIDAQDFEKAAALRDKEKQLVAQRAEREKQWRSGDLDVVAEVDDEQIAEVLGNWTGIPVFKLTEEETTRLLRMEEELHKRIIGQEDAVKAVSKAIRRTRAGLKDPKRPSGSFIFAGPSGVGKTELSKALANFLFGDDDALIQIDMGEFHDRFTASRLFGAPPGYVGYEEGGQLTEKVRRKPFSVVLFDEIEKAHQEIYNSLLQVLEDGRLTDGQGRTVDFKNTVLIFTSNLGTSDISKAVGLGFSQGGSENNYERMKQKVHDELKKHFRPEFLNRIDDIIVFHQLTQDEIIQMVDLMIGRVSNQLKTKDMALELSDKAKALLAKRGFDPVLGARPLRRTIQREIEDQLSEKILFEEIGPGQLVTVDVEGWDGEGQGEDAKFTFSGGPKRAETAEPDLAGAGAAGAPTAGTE

[4] = conc. 0.00038147 µM, well replicates of independent experiments
[5] = conc. 0.00305176 µM, well replicates of independent experiments

COC(c1ccccc1)C1NC(=O)C(C)NC(=O)C(CC(C)CO)N(C)C(=O)C(Cc2cn(Cc3cn(CCOCCOCCOCCOCCn4cc(Cn5cc(CC6NC(=O)C(C(C)C)NC(=O)C(CC(C)C)N(C)C(=O)C(C(C)C)NC(=O)C(C(OC)c7ccccc7)NC(=O)C(C)NC(=O)C(CC(C)CO)N(C)C6=O)c6ccccc65)nn4)nn3)c3ccccc23)NC(=O)C(C(C)C)NC(=O)C(CC(C)C)N(C)C(=O)C(C(C)C)NC1=O (stereo not drawn) [Compound 8]
colony growth after replating (MBC assay) (Mtb H37Rv; Mtb H37Rv, result in words): did not form any colonies at concentrations at or above the MIC value | MBC (Mtb H37Rv; read-out: MBC (from Set 3) Mtb H37Rv): 0.22 µg/mL and 0.1 µM | MBC (Mtb H37Rv; individual example, read-out: MBC Mtb H37Rv): 0.1 µM and 0.2 µg/mL | CACO permeability PEAB (Caco-2 monolayers; apical to basolateral): <0.0000027 cm/sec | Caco-2 permeability P (A-B) (Caco-2 monolayers; apical to basolateral): < 0.6 10-6 cm s-1 | CACO permeability PEBA (Caco-2 monolayers; basolateral to apical): <0.000001 cm/sec | Caco-2 permeability P (B-A) (Caco-2 monolayers; basolateral to apical): < 0.3 10-6 cm s-1 | Caco-2 Int. Perm (Caco-2 monolayers; mean value of P(A−B) and P(B−A)): 0.4 10-6 cm s-1 | Supplementary Figure 2 dose-response value, starvation-induced non-replicating H37Rv cells ([1]; Conc. 0.0488281 µM): 101.903 and 93.5529 and 95.5846 | Supplementary Figure 2 dose-response value, starvation-induced non-replicating H37Rv cells ([1]; Conc. 0.195312 µM): 93.6246 and 84.7332 and 86.7409 | Supplementary Figure 2 dose-response value, starvation-induced non-replicating H37Rv cells ([1]; Conc. 0.390625 µM): 90.2545 and 83.1636 and 86.2868 | Supplementary Figure 2 dose-response value, starvation-induced non-replicating H37Rv cells ([1]; Conc. 0.78125 µM): 91.9834 and 86.6134 and 81.2993 | Supplementary Figure 2 dose-response value, starvation-induced non-replicating H37Rv cells ([1]; Conc. 1.5625 µM): 90.366 and 86 and 85.5618 | Supplementary Figure 2 dose-response value, starvation-induced non-replicating H37Rv cells ([1]; Conc. 3.125 µM): 93.9114 and 69.2927 and 87.5137 | Supplementary Figure 2 dose-response value, starvation-induced non-replicating H37Rv cells ([1]; Conc. 6.25 µM): 87.458 and 76.4871 and 82.7732 | Supplementary Figure 2 dose-response value, starvation-induced non-replicating H37Rv cells ([1]; Conc. 25 µM): 86.1354 and 89.2267 and 87.4022 | Supplementary Figure 2 dose-response value, starvation-induced non-replicating H37Rv cells ([1]; Conc. 50 µM): 91.1707 and 85.8088 and 84.3747 | Supplementary Figure 2 dose-response value, starvation-induced non-replicating H37Rv cells ([1]; Conc. 100 µM): 92.3658 and 81.0443 and 90.6608 | inhibitory activity on non-growing Mtb H37Rv ([1]; starvation for three weeks, result in words): lost their inhibitory activity | MIC ([2]; Mycobacterium tuberculosis, M. tuberculosis H37Rv 27294, single well replicates, read-out: MIC): 0.098 µM (≈ 0.213 µg/mL) | MIC ([2]; Mycobacterium tuberculosis, M. tuberculosis H37Rv strain, read-out: MIC Mtb H37Rv Mean ± SD): 0.4 ± 0.4 µM (≈ 0.868 µg/mL) | MIC ([2]; Mycobacterium tuberculosis, Mtb H37Rv (Supplementary Table 2), read-out: MIC Mtb): 0.4 ± 0.4 µM (≈ 0.868 µg/mL) | MIC ([2]; Mycobacterium tuberculosis, Mtb H37Rv, mean ± SD, n = 3 well replicates, read-out: MIC): 0.2 ± 0.1 µM (≈ 0.434 µg/mL) | MIC ([2]; Mycobacterium tuberculosis, Set 1, read-out: MIC (Mtb H37Rv) Set 1): 0.1 µM and 0.21 µg/mL | MIC ([2]; Mycobacterium tuberculosis, Set 2, read-out: MIC (Mtb H37Rv) Set 2): 0.05 µM and 0.1 µg/mL | MIC ([2]; Mycobacterium tuberculosis, Set 3, done at a different day than Set 1 and Set 2, read-out: MIC (Mtb H37Rv) Set 3): 0.1 µM and 0.21 µg/mL | MIC ([2]; Mycobacterium tuberculosis, individual example (Supplementary Table 11), read-out: MIC Mtb H37Rv): 0.1 µM and 0.2 µg/mL | MIC ([2]; Mycobacterium tuberculosis, mean of 3 experiments +/- SD, unit taken from the sets above in the same table, read-out: MIC data (Mtb H37Rv) (+/- SD)): 0.08 µM and 0.17 µg/mL | MIC ([2]; individual measurements (source data), listed as 8 (UdSBI-0545), read-out: Mtb MIC): 0.780 µM (2×) and 0.097 µM (2×) | MIC (Msm 607; Mycolicibacterium smegmatis, 607, read-out: MIC Msm 607): 1.9 ± 0.9 µM (≈ 4.12 µg/mL) | MIC (Msm 607; Mycolicibacterium smegmatis, 607, read-out: MIC Msm #607, individual example (Supplementary Table 11)): 1.6 µM and 3.4 µg/mL | MIC (Msm 607; Mycolicibacterium smegmatis, ATCC607, Set-1, read-out: MIC (Msm ATCC607) Set-1): 3.12 µM and 6.78 µg/mL | MIC (Msm 607; Mycolicibacterium smegmatis, ATCC607, Set-2, read-out: MIC (Msm ATCC607) Set-2): 1.56 µM and 3.39 µg/mL | MIC (Msm 607; Mycolicibacterium smegmatis, ATCC607, Set-3, done at a different day than Set 1 and Set 2, read-out: MIC (Msm ATCC607) Set-3): 1.56 µM and 3.39 µg/mL | MIC (Msm 607; Mycolicibacterium smegmatis, ATCC607, mean of 3 experiments ± SD, read-out: MIC including standard deviations (Msm ATCC607)): 2.08 µM and 4.5 µg/mL | DC50 ([3]; 24 hours, value of the earlier manuscript version quoted in the peer review file, read-out: average DC50, ClpC1 degradation): 571 nM | DC50 ([3]; Msm #607, 24 h of incubation, read-out: average DC50, endogenous ClpC1 degradation): 570 ± 400 nM | ClpC1/Total protein [3, 4]: 0.2282 and 0.267 and 0.2648 and 0.2027 and 0.212 and 0.2298 and 0.7429 and 0.8229 and 0.7712 | ClpC1 peak area [3, 4]: 294811 and 344226 and 322628 and 390018 and 426373 and 358944 and 302120 and 328285 and 319637 | Total protein [3, 4]: 1323644 and 1229496 and 1207050 and 1454716 and 1623647 and 1404254 and 524970 and 518103 and 465460 | ClpC1/Total protein [3, 5]: 0.2394 and 0.2569 and 0.2557 and 0.2218 and 0.1962 and 0.1042 and 0.78 and 0.7556 and 0.8129 | ClpC1 peak area [3, 5]: 298033 and 275548 and 121574 and 410944 and 384208 and 424052 and 320906 and 252067 and 328696
